One experiment concerns C. symbiosum. The experiment is described as follows: In vitro bacterial rescue study with folic acid. It counts as cell-based, Clostridium symbiosum. The settings on record: MTX resistant isolate; high doses of MTX. On the procedure: (§1) As described in the ur in vitro bacterial growth studies, 48-hour overnight cultures were grown in an anaerobic chamber in liquid BHI+ for the following isolates: Bacteroides vulgatus, Bacteroides thetaiotaomicron, Clostridium innocuum and Clostridium symbiosum. Each subculture was diluted down to an OD600 of 0.08-0.1, which was then further diluted 100-fold, and then used to inoculate a 96-well microtiter plate with 2-fold serial dilutions of MTX (Sigma, Cat #M9929) concentrations ranging from 0-450 μg/ml (0-990 μM) along the columns (1-10) and 2-fold serial dilutions of folic acid (Fischer Scientific, BP25195) ranging from 0-250 μg/ml (0-566 μM) along the rows (A-H). Each plate included media and growth controls. […]
(§2) Growth parameters (carrying capacity, time to mid-exponential and growth rate) were calculated in R using GrowthCurveR (Sprouffske, K., and Wagner, A. (2016), BMC Bioinformatics 17, 1726) (v0.2.1). […] For rescue studies, as above, growth parameters (carrying capacity, time to mid-exponential, growth rate, and area under the curve) were calculated in R using GrowthCurveR (Sprouffske and Wagner, 2016) (v0.2.1). Four isolates were evaluated with varying sensitivity to MTX (B. thetaiotaomicron, B. vulgatus, C. innocuum and C. symbiosum). […] Growth curves at 9 concentrations of MTX tested against 7 concentrations of folic acid were measured. […]

The test system of the next experiment is B. theta. The experiment is described as follows: In vitro bacterial rescue study with folic acid. It counts as cell-based, Bacteroides thetaiotaomicron. Particulars: in the presence and absence of MTX; folic acid 0-250 μg/ml. On the procedure: as §1, §2
The test system of a further experiment is C. innocuum. The experiment is described as follows: In vitro bacterial rescue study with folic acid. The settings on record: folic acid 0-250 μg/ml; MTX 0-450 μg/ml. It counts as cell-based, Clostridium innocuum. On the procedure: as §1, §2
For another experiment, the system named is B. vulgatus. The experiment is described as follows: In vitro bacterial rescue study with folic acid. The class given is cell-based, Bacteroides vulgatus. Particulars: folic acid 0-250 μg/ml; MTX 0-450 μg/ml. On the procedure:
as §1, §2

Another experiment has as its system human gut microbiota. Description: MTX treatment of gnotobiotic mice colonized with human stool; 16S-seq and qPCR of gut microbiota. The class given is in vivo. Particulars: Donor 3 mice, oral MTX 50 mg/kg with or without equimolar folic acid. On the technique in general: Real-time PCR tracks product formation cycle by cycle.
Experiment [1] concerns B. vulgatus, B. thetaiotaomicron, C. innocuum, and C. symbiosum. Description: In vitro bacterial rescue study with leucovorin. It counts as cell-based.

The source of these data is patent publication US20220160712A1, “METHODS OF TREATING RHEUMATOID ARTHRITIS AND FOR PREDICTING THE RESPONSE TO METHOTREXATE” (CHAN ZUCKERBERG BIOHUB, INC., priority 2020, published 2022).

As to `Nc1nc2ncc(CNc3ccc(C(=O)N[C@@H](CCC(=O)O)C(=O)O)cc3)nc2c(=O)[nH]1` [folic acid], the “effect of folic acid on MTX sensitivity” value in the experiment on C. symbiosum is “sensitized to MTX”. For the same compound, the “growth in response to folic acid” value with B. theta was “improved in a dose-dependent manner”. Further, the “dose-dependent increases in growth with folic acid” value in the experiment with C. innocuum and in the experiment on B. vulgatus was “only evident in the presence of MTX” in each case. The “rescue of the gut microbiota from MTX by co-administered folic acid (α- or β-diversity between groups)” value is “Neither route nor rescue resulted in a significant difference” with human gut microbiota and “did not markedly rescue the gut microbiota” in the experiment on human gut microbiota (listed as Folic acid).
For `Nc1nc2c(c(=O)[nH]1)N(C=O)C(CNc1ccc(C(=O)N[C@@H](CCC(=O)O)C(=O)O)cc1)CN2` (some centres unmarked) [leucovorin], the “effect of leucovorin on growth of the tested isolates” value in experiment [1] (leucovorin 0-125 μg/ml (FIG. 4D and 4E)) is “improved growth of 3 of the 4 tested isolates”. For the same compound, the “dose-dependent effects of leucovorin on growth in the presence of MTX” value in experiment [1] (leucovorin 0-125 μg/ml, linear regression (FIG. 4F)) is “did not have any significant dose-dependent effects”.
